Test results from ChEMBL document CHEMBL1201862, “PubChem BioAssay data set” (2004).
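96-well plates; 48 h exposure; 5 concentrations. Endpoints by linear interpolation between flanking doses. Not reached: highest tested concentration assigned. GI50: concentration for 50% inhibition of growth.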 Activity calls are given as the source filed them. Rule as the data show it: active = GI50 up to about 1.1 µM and inactive = higher.

How the values were obtained:
Experiment in all cases: DTP human tumour cell line panel, 48 h
SNB-19 = tested on: SNB-19
TK-10 = tested on: TK-10
HT-29 = tested on: HT-29
NCI-H226 = tested on: NCI-H226
UACC-62 = tested on: UACC-62
HL-60 = tested on: HL-60
OVCAR-5 = tested on: OVCAR-5
HCT-116 = tested on: HCT-116
M14 = tested on: M14
K562 = tested on: K562
MOLT-4 = tested on: MOLT-4
KM12 = tested on: KM12
CAKI-1 = tested on: CAKI-1
EKVX = tested on: EKVX
SK-MEL-2 = tested on: SK-MEL-2

Measured: GI50

CC1(C)C(=O)C(C)(C)C1=NN
inactive: SNB-19 > 100 µM | TK-10 > 100 µM | HT-29 > 100 µM | NCI-H226 > 100 µM | UACC-62 > 100 µM | HL-60 > 100 µM | OVCAR-5 > 100 µM | HCT-116 > 100 µM | M14 > 100 µM | K562 > 100 µM | MOLT-4 > 100 µM | KM12 > 100 µM | CAKI-1 > 100 µM

CCCCCCCCCCCCCCCc1nnc(SCC(=O)O)[nH]1
inactive: EKVX > 100 µM | SNB-19 49.7 µM | TK-10 13.2 µM | HT-29 31.7 µM | UACC-62 42.2 µM | HL-60 34.8 µM | HCT-116 92.7 µM | M14 19.3 µM | K562 16.4 µM | MOLT-4 11.7 µM | KM12 48.3 µM | SK-MEL-2 37.9 µM | CAKI-1 63.2 µM

O=[N+]([O-])c1ccc(C[P+]2(c3ccccc3)CCCCC2)cc1.[O-][Cl+3]([O-])([O-])[O-]
inactive: EKVX > 100 µM | SNB-19 > 100 µM | TK-10 > 100 µM | HT-29 > 100 µM | NCI-H226 > 100 µM | UACC-62 > 100 µM | HL-60 > 100 µM | OVCAR-5 > 100 µM | HCT-116 > 100 µM | M14 > 100 µM | K562 > 100 µM | MOLT-4 > 100 µM | KM12 > 100 µM | SK-MEL-2 > 100 µM

CC1(O)CCC2(C)C(=O)C1(C)CCC21OCCO1 (centres undefined)
inactive: EKVX > 100 µM | SNB-19 > 100 µM | TK-10 > 100 µM | HT-29 > 100 µM | NCI-H226 > 100 µM | HL-60 > 100 µM | OVCAR-5 > 100 µM | M14 > 100 µM | K562 > 100 µM | MOLT-4 > 100 µM | KM12 > 100 µM | SK-MEL-2 > 100 µM

COC(=O)Cc1c([C@@]2(C)CCCC(C)(C)C2)ccc2c1C(=O)OC2
inactive: EKVX 18.1 µM | TK-10 17.9 µM | HT-29 10.8 µM | NCI-H226 11.2 µM | UACC-62 10.6 µM | HL-60 3.42 µM | HCT-116 5.64 µM | M14 10.5 µM | K562 4.02 µM | MOLT-4 3.92 µM | KM12 8.15 µM | CAKI-1 > 10 µM

COc1ccc(C[C@]23CCC(=O)N2CCc2cc(OC)c(O)cc23)cc1O
inactive: EKVX > 100 µM | SNB-19 > 100 µM | TK-10 > 100 µM | HT-29 > 100 µM | NCI-H226 > 100 µM | UACC-62 > 100 µM | HL-60 > 100 µM | OVCAR-5 > 100 µM | HCT-116 > 100 µM | M14 > 100 µM | K562 > 100 µM | MOLT-4 > 100 µM | KM12 > 100 µM | CAKI-1 > 100 µM

COc1ccc(C(CCC(C)=O)C(=O)O)cc1OC (centres undefined)
inactive: EKVX > 100 µM | SNB-19 > 100 µM | TK-10 > 100 µM | HT-29 > 100 µM | UACC-62 > 100 µM | OVCAR-5 > 100 µM | HCT-116 > 100 µM | K562 > 100 µM | KM12 > 100 µM | SK-MEL-2 > 100 µM | CAKI-1 > 100 µM

CC(=O)C1Cn2c(=O)c3cc4ccccc4cc3c(=O)n2C=C1C (centres undefined)
inactive: EKVX > 100 µM | SNB-19 > 100 µM | TK-10 > 100 µM | NCI-H226 > 100 µM | HL-60 > 100 µM | OVCAR-5 > 100 µM | HCT-116 > 100 µM | M14 > 100 µM | K562 > 100 µM | MOLT-4 > 100 µM | KM12 > 100 µM | SK-MEL-2 > 100 µM | CAKI-1 > 100 µM

Nc1cccc(S(=O)(=O)NCC(=O)O)c1
inactive: EKVX > 100 µM | SNB-19 > 100 µM | TK-10 > 100 µM | HT-29 > 100 µM | NCI-H226 > 100 µM | UACC-62 > 100 µM | OVCAR-5 > 100 µM | HCT-116 > 100 µM | M14 > 100 µM | K562 > 100 µM | MOLT-4 > 100 µM | KM12 > 100 µM | SK-MEL-2 > 100 µM | CAKI-1 > 100 µM

CC(C)C(=O)/C=C/c1ccc(Cl)cc1
inactive: SNB-19 13.4 µM | HT-29 14.1 µM | UACC-62 15.4 µM | HL-60 8.22 µM | OVCAR-5 20.2 µM | HCT-116 2.67 µM | M14 17.1 µM | K562 3.48 µM | MOLT-4 12.2 µM | KM12 11.5 µM | SK-MEL-2 19.4 µM

CCCCc1c2c(nc3c1CC/C(=C\c1ccccc1)C3=O)CCCC2
inactive: EKVX 12.2 µM | SNB-19 3.48 µM | TK-10 9.33 µM | HT-29 2.22 µM | NCI-H226 > 10 µM | UACC-62 2.72 µM | HL-60 2.79 µM | HCT-116 4.9 µM | M14 4.91 µM | K562 4.07 µM | MOLT-4 3.33 µM | KM12 3.85 µM
